# Test results from patent US20170051149A1, “AZOARYLS AS REVERSIBLY MODULATABLE TUBULIN INHIBITORS” (ECOLE NORMALE SUPERIEURE DE LYON, priority 2014, published 2017).
# Tests used:
# Format in all cases: cell-based
# HEK-293 = experiment: cell cycle analysis by PI flow cytometry; settings: 30 h
# Method: (§1) The effect of compound I.1 on cell cycle progression was assessed by flow cytometry. Briefly, following the application of compound I.1 and exposure to the indicated light regime, cells were harvested on ice and incubated in a hypotonic buffer [0.1% sodium citrate, 0.1% Triton X-100 and 50 μg/mL propidium iodide (PI)] for 30 min at 4° C. Following the PI staining cells were analysed by flow cytometry using FACSCalibur flow cytometer (Becton Dickinson, Heidelberg, Germany) and Cell Quest Pro Software (Becton Dickinson). Subsequently the cell cycle analysis was performed using the FlowJo software (Tree Star Inc., Ashland, Oreg., USA).
# HepG2 cells [1] = experiment: cell cycle analysis by PI flow cytometry; settings: 48 h
# Method: as §1
# HeLa = experiment: cell cycle analysis by PI flow cytometry; settings: 30 h
# Method: as §1
# MDA-MB-231 cells = experiment: cell cycle analysis by PI flow cytometry
# Method: as §1
# HepG2 cells [2] = experiment: nuclear fragmentation (subG1, Nicoletti), induction of apoptosis; settings: 48 h
# Method: (§2) Different cell types, including MDA-MB-231, Jurkat, HeLa and HepG2 cells, were treated with indicated concentrations of compound I.1 and exposed to a 390 nm toxic regime, a rescue regime with both 390 nm and 515 nm light, or kept in the dark. Following the treatment, cells were stained with PI and the percentage of cells containing a hypodiploid amount of DNA (subG1 phase of cell cycle), was determined. Briefly, prior to analysis, cells were harvested on ice and incubated in a hypotonic buffer [0.1% sodium citrate, 0.1% Triton X-100 and 50 μg/mL propidium iodide (PI)] for 30 min at 4° C. Following the PI staining cells were analysed by flow cytometry using FACSCalibur flow cytometer (Becton Dickinson, Heidelberg, Germany) and Cell Quest Pro Software (Becton Dickinson).
# Jurkat cells = experiment: as above; settings: 48 h
# Method: as §2
# [3] = 200 nM, 390 nm (1 s every 15 min)
# [4] = 600 nM, 390 nm (1 s every 15 min)
# [5] = 1.5 μM, 390 nm (1 s every 15 min)
# [6] = 5 μM, 390 nm (1 s every 15 min)
# [7] = 10 nM, 390 nm (150 ms every 30 s), 48 h
# [8] = 20 nM, 390 nm (150 ms every 30 s), 48 h
# [9] = 50 nM, 390 nm (150 ms every 30 s), 48 h
# [10] = 100 nM, 390 nm (150 ms every 30 s), 48 h
# [11] = 400 nM, 390 nm (150 ms every 30 s), 48 h
# [12] = 600 nM, 390 nm (150 ms every 30 s), 48 h
# [13] = 800 nM, 390 nm (150 ms every 30 s), 48 h
# [14] = 1 μM, 390 nm (150 ms every 30 s), 48 h
# [15] = 2 μM, 390 nm (150 ms every 30 s), 48 h
# [16] = 5 μM, 390 nm (150 ms every 30 s), 48 h
smiles,measurement,setting,value
"COc1ccc(N=Nc2cc(OC)c(OC)c(OC)c2)cc1O [I.1, 2-methoxy-5-((3,4,5-trimethoxyphenyl)diazenyl)phenol]",mean % G2/M phase,HEK-293; [3],19.0%
same,mean % G2/M phase,"HEK-293; 200 nM, dark",20.2%
same,mean % G2/M phase,HEK-293; [4],19.4%
same,mean % G2/M phase,"HEK-293; 600 nM, dark",21.2%
same,mean % G2/M phase,HEK-293; [5],65.3%
same,mean % G2/M phase,"HEK-293; 1.5 μM, dark",21.1%
same,mean % G2/M phase,HEK-293; [6],71.5%
same,mean % G2/M phase,"HEK-293; 5 μM, dark",24.6%
same,mean % G2/M phase,"HepG2 cells [1]; 100 nM, 390 nm (250 ms every 15 s)",7.8%
same,mean % G2/M phase,"HepG2 cells [1]; 100 nM, dark",10.0%
same,mean % G2/M phase,"HepG2 cells [1]; 600 nM, 390 nm (250 ms every 15 s)",9.4%
same,mean % G2/M phase,"HepG2 cells [1]; 600 nM, dark",8.6%
same,mean % G2/M phase,"HepG2 cells [1]; 1 μM, 390 nm (250 ms every 15 s)",10.7%
same,mean % G2/M phase,"HepG2 cells [1]; 1 μM, dark",10.1%
same,mean % G2/M phase,"HepG2 cells [1]; 3 μM, 390 nm (250 ms every 15 s)",9.3%
same,mean % G2/M phase,"HepG2 cells [1]; 3 μM, dark",11.2%
same,mean % G2/M phase,"HepG2 cells [1]; 10 μM, 390 nm (250 ms every 15 s)",42.3%
same,mean % G2/M phase,"HepG2 cells [1]; 10 μM, dark",11.7%
same,mean % G2/M phase,HeLa; [3],26.2%
same,mean % G2/M phase,"HeLa; 200 nM, dark",23.5%
same,mean % G2/M phase,HeLa; [4],33.7%
same,mean % G2/M phase,"HeLa; 600 nM, dark",24.8%
same,mean % G2/M phase,HeLa; [5],59.9%
same,mean % G2/M phase,"HeLa; 1.5 μM, dark",27.1%
same,mean % G2/M phase,HeLa; [6],68.7%
same,mean % G2/M phase,"HeLa; 5 μM, dark",28.4%
same,% G1,MDA-MB-231 cells; [7],74.6%
same,% G2,MDA-MB-231 cells; [7],1.9%
same,% S,MDA-MB-231 cells; [7],17.1%
same,mean % G2/M phase,MDA-MB-231 cells; [7],1.9%
same,mean % G2/M phase,"MDA-MB-231 cells; 10 nM, 390 nm + 515 nm (rescue), 48 h",0.8%
same,mean % G2/M phase,"MDA-MB-231 cells; 10 nM, 515 nm (500 ms every 30 s), 48 h",1.1%
same,% G1,MDA-MB-231 cells; [8],79.5%
same,% G2,MDA-MB-231 cells; [8],2.5%
same,% S,MDA-MB-231 cells; [8],18.0%
same,% G1,MDA-MB-231 cells; [9],77.1%
same,% G2,MDA-MB-231 cells; [9],1.8%
same,% S,MDA-MB-231 cells; [9],18.0%
same,% G1,MDA-MB-231 cells; [10],76.6%
same,% G2,MDA-MB-231 cells; [10],2.0%
same,% S,MDA-MB-231 cells; [10],18.5%
same,mean % G2/M phase,MDA-MB-231 cells; [10],2.0%
same,mean % G2/M phase,"MDA-MB-231 cells; 100 nM, 390 nm + 515 nm (rescue), 48 h",0.9%
same,mean % G2/M phase,"MDA-MB-231 cells; 100 nM, 515 nm (500 ms every 30 s), 48 h",1.2%
same,mean % G2/M phase,"MDA-MB-231 cells; 200 nM, 390 nm (1 s every 15 min), 30 h",8.2%
same,mean % G2/M phase,"MDA-MB-231 cells; 200 nM, dark, 30 h",14.3%
same,% G1,MDA-MB-231 cells; [11],53.1%
same,% G2,MDA-MB-231 cells; [11],15.1%
same,% S,MDA-MB-231 cells; [11],27.6%
same,mean % G2/M phase,MDA-MB-231 cells; [11],15.1%
same,mean % G2/M phase,"MDA-MB-231 cells; 400 nM, 390 nm + 515 nm (rescue), 48 h",6.4%
same,mean % G2/M phase,"MDA-MB-231 cells; 400 nM, 515 nm (500 ms every 30 s), 48 h",8.2%
same,mean % G2/M phase,"MDA-MB-231 cells; 600 nM, 390 nm (1 s every 15 min), 30 h",16.3%
same,% G1,MDA-MB-231 cells; [12],18.0%
same,% G2,MDA-MB-231 cells; [12],42.6%
same,% S,MDA-MB-231 cells; [12],31.0%
same,mean % G2/M phase,MDA-MB-231 cells; [12],42.6%
same,mean % G2/M phase,"MDA-MB-231 cells; 600 nM, 390 nm + 515 nm (rescue), 48 h",17.3%
same,mean % G2/M phase,"MDA-MB-231 cells; 600 nM, 515 nm (500 ms every 30 s), 48 h",21.7%
same,mean % G2/M phase,"MDA-MB-231 cells; 600 nM, dark, 30 h",12.8%
same,% G1,MDA-MB-231 cells; [13],9.5%
same,% G2,MDA-MB-231 cells; [13],54.2%
same,% S,MDA-MB-231 cells; [13],27.5%
same,mean % G2/M phase,MDA-MB-231 cells; [13],54.2%
same,mean % G2/M phase,"MDA-MB-231 cells; 800 nM, 390 nm + 515 nm (rescue), 48 h",24.7%
same,mean % G2/M phase,"MDA-MB-231 cells; 800 nM, 515 nm (500 ms every 30 s), 48 h",32.5%
same,% G1,MDA-MB-231 cells; [14],5.5%
same,% G2,MDA-MB-231 cells; [14],52.9%
same,% S,MDA-MB-231 cells; [14],27.6%
same,mean % G2/M phase,MDA-MB-231 cells; [14],52.9%
same,mean % G2/M phase,"MDA-MB-231 cells; 1 μM, 390 nm + 515 nm (rescue), 48 h",22.3%
same,mean % G2/M phase,"MDA-MB-231 cells; 1 μM, 515 nm (500 ms every 30 s), 48 h",28.4%
same,mean % G2/M phase,"MDA-MB-231 cells; 1.5 μM, 390 nm (1 s every 15 min), 30 h",40.6%
same,mean % G2/M phase,"MDA-MB-231 cells; 1.5 μM, dark, 30 h",13.1%
same,% G1,MDA-MB-231 cells; [15],4.8%
same,% G2,MDA-MB-231 cells; [15],60.1%
same,% S,MDA-MB-231 cells; [15],26.4%
same,mean % G2/M phase,"MDA-MB-231 cells; 5 μM, 390 nm (1 s every 15 min), 30 h",49.4%
same,% G1,MDA-MB-231 cells; [16],5.0%
same,% G2,MDA-MB-231 cells; [16],70.2%
same,% S,MDA-MB-231 cells; [16],23.9%
same,mean % G2/M phase,"MDA-MB-231 cells; 5 μM, dark, 30 h",13.8%
same,mean % subG1 phase,"HepG2 cells [2]; 100 nM, HepG2, 390 nm light (250 ms pulses every 15 s)",5.4%
same,mean % subG1 phase,"HepG2 cells [2]; 100 nM, HepG2, dark",2.5%
same,mean % subG1 phase,"HepG2 cells [2]; 600 nM, HepG2, 390 nm light (250 ms pulses every 15 s)",5.2%
same,mean % subG1 phase,"HepG2 cells [2]; 600 nM, HepG2, dark",3.1%
same,mean % subG1 phase,"HepG2 cells [2]; 1 μM, HepG2, 390 nm light (250 ms pulses every 15 s)",4.6%
same,mean % subG1 phase,"HepG2 cells [2]; 1 μM, HepG2, dark",2.3%
same,mean % subG1 phase,"HepG2 cells [2]; 3 μM, HepG2, 390 nm light (250 ms pulses every 15 s)",6.5%
same,mean % subG1 phase,"HepG2 cells [2]; 3 μM, HepG2, dark",1.9%
same,mean % subG1 phase,"HepG2 cells [2]; 10 μM, HepG2, 390 nm light (250 ms pulses every 15 s)",14%
same,mean % subG1 phase,"HepG2 cells [2]; 10 μM, HepG2, dark",2.8%
same,mean % subG1 phase,"Jurkat cells; 5 nM, 390 nm (350 ms pulses every 5 min)",2.7%
same,mean % subG1 phase,"Jurkat cells; 5 nM, dark",3.0%
same,mean % subG1 phase,"Jurkat cells; 50 nM, 390 nm (350 ms pulses every 5 min)",4.9%
same,mean % subG1 phase,"Jurkat cells; 50 nM, dark",3.4%
same,mean % subG1 phase,"Jurkat cells; 100 nM, 390 nm (350 ms pulses every 5 min)",9.1%
same,mean % subG1 phase,"Jurkat cells; 100 nM, dark",3.5%
same,mean % subG1 phase,"Jurkat cells; 150 nM, 390 nm (350 ms pulses every 5 min)",18.5%
same,mean % subG1 phase,"Jurkat cells; 150 nM, dark",3.3%
same,mean % subG1 phase,"Jurkat cells; 200 nM, 390 nm (350 ms pulses every 5 min)",49.7%
same,mean % subG1 phase,"Jurkat cells; 200 nM, dark",3.0%
same,mean % subG1 phase,"Jurkat cells; 400 nM, 390 nm (350 ms pulses every 5 min)",88.5%
same,mean % subG1 phase,"Jurkat cells; 400 nM, dark",4.4%
same,mean % subG1 phase,"Jurkat cells; 800 nM, 390 nm (350 ms pulses every 5 min)",89.5%
same,mean % subG1 phase,"Jurkat cells; 800 nM, dark",5.5%
same,mean % subG1 phase,"Jurkat cells; 1.5 μM, 390 nm (350 ms pulses every 5 min)",89.6%
same,mean % subG1 phase,"Jurkat cells; 1.5 μM, dark",7.9%
same,mean % subG1 phase,"Jurkat cells; 5 μM, 390 nm (350 ms pulses every 5 min)",91.0%
same,mean % subG1 phase,"Jurkat cells; 5 μM, dark",12.0%
